One assay relates to MS751 cells. The experiment in a line: MTT cell proliferation assay, MS751. The class given is cell-based, human. To be noted: Homo sapiens. The gist of the method: (§1)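 Absorbance at 490 nm of solubilized formazan, produced during roughly 4 h MTT incubation, gave percent inhibition relative to negative control. Compounds spanned eight concentrations between 1 nM and 30 μM on cells plated overnight at 5,000-10,000 per well.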
(Formazan colour is commonly taken as a measure of viable cells.)

A further assay concerns Z138 cells. The experiment in a line: MTT cell proliferation assay, Z138. The conditions noted are these: Homo sapiens. The class given is cell-based. The gist of the method:
as §1

For a further assay, the system named is 3T3 cells. As to the kind of experiment: MTT cell proliferation assay, 3T3. In kind it is cell-based, mouse. The conditions noted are these: Mus musculus. The gist of the method: as §1
The mark [1] stands for this setting: MS751, MS751 cells, approximately 64-72 hours incubation, read-out: MTT Assay IC50, MS751.
Where [2] appears, read: Z-138, Z138 cells, approximately 64-72 hours incubation, read-out: MTT Assay IC50, Z138.
The mark [3] stands for this setting: NIH3T3, 3T3 cells, approximately 64-72 hours incubation, read-out: MTT Assay IC50, 3T3.
The mark [4] stands for this setting: MS751, read-out: MTT Assay IC50, MS751.
Setting [5] is: Z-138, read-out: MTT Assay IC50, Z138.
Where [6] appears, read: NIH3T3, read-out: MTT Assay IC50, 3T3.

Where two headings read alike, the source gives them in different places.

A word on the IC50: it is the midpoint of a concentration-inhibition curve. For `Nc1ccc(/C=C/C(=O)NCC2Cc3cc(-c4cc(F)c(C(=O)N5CCOCC5)cc4F)cc(Cl)c3O2)cn1` (stereo not drawn) [Compound 328, (E)-3-(6-Aminopyridin-3-yl)-N-((7-chloro-5-(2,5-difluoro-4-(morpholine-4-carbonyl)phenyl)-2,3-dihydrobenzofuran-2-yl)methyl)acrylamide], the half-maximal inhibitory concentration (IC50) in the assay with MS751 cells (setting [1]) was below 100 nM; with Z138 cells (setting [2]), below 100 nM; in the assay with 3T3 cells (setting [3]) it was 100 to 5000 nM.

Consider `Nc1ccc(/C=C/C(=O)NCC2Cc3cc(-c4cnc(C(=O)N5CCOCC5)c(F)c4)cc(Cl)c3O2)cn1` (stereo not drawn) [Compound 329, (E)-3-(6-Aminopyridin-3-yl)-N-((7-chloro-5-(5-fluoro-6-(morpholine-4-carbonyl)pyridin-3-yl)-2,3-dihydrobenzofuran-2-yl)methyl)acrylamide], for which the IC50 in the assay with MS751 cells (setting [1]) is 100 to 5000 nM; in the assay on Z138 cells (setting [2]) it was below 100 nM; with 3T3 cells (setting [3]) it was 5000 to 30000 nM.

`Nc1ccc(/C=C/C(=O)NCC2Cc3cc(-c4ncc(C(=O)N5CCOCC5)cn4)cc(Cl)c3O2)cn1` (stereo not drawn) [Compound 330, (E)-3-(6-Aminopyridin-3-yl)-N-((7-chloro-5-(5-(morpholine-4-carbonyl)pyrimidin-2-yl)-2,3-dihydrobenzofuran-2-yl)methyl)acrylamide]: the values for the half-maximal inhibitory concentration (IC50) in the assay with MS751 cells (setting [1]), in the assay with Z138 cells (setting [2]) and in the assay on 3T3 cells (setting [3]) were below 100 nM, below 100 nM and 5000 to 30000 nM, respectively.

For `Nc1ccc(/C=C/C(=O)NCC2Cc3cc(-c4ccc(C(=O)N5CCOCC5)nn4)cc(Cl)c3O2)cn1` (stereo not drawn) [Compound 331, (E)-3-(6-Aminopyridin-3-yl)-N-((7-chloro-5-(6-(morpholine-4-carbonyl)pyridazin-3-yl)-2,3-dihydrobenzofuran-2-yl)methyl)acrylamide], the concentration for half-maximal inhibition (IC50) is 100 to 5000 nM in the assay with MS751 cells (setting [1]), below 100 nM in the assay on Z138 cells (setting [2]) and 5000 to 30000 nM in the assay with 3T3 cells (setting [3]).

`Nc1ccc(/C=C/C(=O)NCC2Cc3cc(-c4cc(F)c(C(=O)N5CCOCC5)c(F)c4)cc(Cl)c3O2)cn1` (stereo not drawn) [Compound 332, (E)-3-(6-Aminopyridin-3-yl)-N-((7-chloro-5-(3,5-difluoro-4-(morpholine-4-carbonyl)phenyl)-2,3-dihydrobenzofuran-2-yl)methyl)acrylamide]: the IC50 with MS751 cells (setting [1]) is below 100 nM; in the assay on Z138 cells (setting [2]), below 100 nM; in the assay with 3T3 cells (setting [3]), 100 to 5000 nM.

Consider `Nc1ccc(/C=C/C(=O)NCC2Cc3cc(-c4ccc(C(=O)N5CCOCC5)cn4)cc(Cl)c3O2)cn1` (stereo not drawn) [Compound 333, (E)-3-(6-Aminopyridin-3-yl)-N-((7-chloro-5-(5-(morpholine-4-carbonyl)pyridin-2-yl)-2,3-dihydrobenzofuran-2-yl)methyl)acrylamide], for which the concentration for half-maximal inhibition (IC50) was below 100 nM with MS751 cells (setting [1]), below 100 nM in the assay with Z138 cells (setting [2]) and 5000 to 30000 nM with 3T3 cells (setting [3]).

With `O=C(/C=C/C1Cc2cc(-c3ccc(C(=O)N4CCOCC4)cc3)cc(Cl)c2O1)NCc1cccnc1` (stereo not drawn) [Compound 334, (E)-3-(7-Chloro-5-(4-(morpholine-4-carbonyl)phenyl)-2,3-dihydrobenzofuran-2-yl)-N-(pyridin-3-ylmethyl)acrylamide], the IC50 in the assay on MS751 cells (setting [1]) fell in the range of 100 to 5000 nM; in the assay on Z138 cells (setting [2]), 100 to 5000 nM; in the assay on 3T3 cells (setting [3]), 5000 to 30000 nM.

For `Nc1ccc(/C=C/C(=O)NCC2Cc3cc(-c4cc(F)c(C(=O)N5CC(F)(F)C5)c(F)c4)cc(Cl)c3O2)cn1` (stereo not drawn) [Compound 335, (E)-3-(6-aminopyridin-3-yl)-N-((7-chloro-5-(4-(3,3-difluoroazetidine-1-carbonyl)-3,5-difluorophenyl)-2,3-dihydrobenzofuran-2-yl)methyl)acrylamide], the IC50 with MS751 cells (setting [1]) was below 100 nM; in the assay on Z138 cells (setting [2]), below 100 nM; in the assay on 3T3 cells (setting [3]), 100 to 5000 nM.

For `Nc1ccc(/C=C/C(=O)NCC2Cc3cc(-c4ccc(C(=O)N5CC(F)(F)C5)c(F)c4)cc(Cl)c3O2)cn1` (stereo not drawn) [Compound 336, (E)-3-(6-aminopyridin-3-yl)-N-((7-chloro-5-(4-(3,3-difluoroazetidine-1-carbonyl)-3-fluorophenyl)-2,3-dihydrobenzofuran-2-yl)methyl)acrylamide], the IC50 with MS751 cells (setting [1]) was below 100 nM; in the assay on Z138 cells (setting [2]), below 100 nM; with 3T3 cells (setting [3]) it was 100 to 5000 nM.

Consider `Nc1ccc(/C=C/C(=O)NCC2Cc3cc(-c4ccc(C(=O)N5CC(F)(F)C5)c(F)c4F)cc(Cl)c3O2)cn1` (stereo not drawn) [Compound 337], for which the IC50 in the assay on MS751 cells (setting [1]) is below 100 nM; in the assay with Z138 cells (setting [2]) it was below 100 nM; in the assay on 3T3 cells (setting [3]), 100 to 5000 nM.

As for `Nc1ccc(/C=C/C(=O)NCC2Cc3cc(-c4ccc(C(=O)N5CC(F)(F)C5)cn4)cc(Cl)c3O2)cn1` (stereo not drawn) [Compound 338, (E)-3-(6-aminopyridin-3-yl)-N-((7-chloro-5-(5-(3,3-difluoroazetidine-1-carbonyl)pyridin-2-yl)-2,3-dihydrobenzofuran-2-yl)methyl)acrylamide], the IC50 in the assay on MS751 cells (setting [1]) is below 100 nM; in the assay with Z138 cells (setting [2]), below 100 nM; with 3T3 cells (setting [3]) it was 100 to 5000 nM.

On to `Nc1ccc(/C=C/C(=O)NCC2Cc3cc(-c4ccc(C(=O)N5CCCCC5)cn4)cc(Cl)c3O2)cn1` (stereo not drawn) [Compound 339, (E)-3-(6-aminopyridin-3-yl)-N-((7-chloro-5-(5-(piperidine-1-carbonyl)pyridin-2-yl)-2,3-dihydrobenzofuran-2-yl)methyl)acrylamide], for which the IC50 in the assay on MS751 cells (setting [1]) was 100 to 5000 nM; in the assay on Z138 cells (setting [2]), below 100 nM; in the assay on 3T3 cells (setting [3]) it was 5000 to 30000 nM.

For `Nc1ccc(/C=C/C(=O)NCC2Cc3c(-c4ccc(C(=O)N5CC(F)(F)C5)cc4)ccc(Cl)c3O2)cn1` (stereo not drawn) [Compound 340, (E)-3-(6-aminopyridin-3-yl)-N-((7-chloro-4-(4-(3,3-difluoroazetidine-1-carbonyl)phenyl)-2,3-dihydrobenzofuran-2-yl)methyl)acrylamide], the concentration for half-maximal inhibition (IC50) in the assay with MS751 cells (setting [1]) was below 100 nM; in the assay on Z138 cells (setting [2]), 100 to 5000 nM; in the assay with 3T3 cells (setting [3]), below 100 nM.

In the case of `Nc1ccc(/C=C/C(=O)NCC2Cc3c(-c4ccccc4C(=O)N4CC(F)(F)C4)ccc(Cl)c3O2)cn1` (stereo not drawn) [Compound 341, (E)-3-(6-aminopyridin-3-yl)-N-((7-chloro-4-(2-(3,3-difluoroazetidine-1-carbonyl)phenyl)-2,3-dihydrobenzofuran-2-yl)methyl)acrylamide], the figures for the half-inhibitory concentration (IC50) in the assay on MS751 cells (setting [1]), with Z138 cells (setting [2]) and in the assay with 3T3 cells (setting [3]) were below 100 nM, 100 to 5000 nM and below 100 nM, respectively.

`Nc1ccc(/C=C/C(=O)NCC2Cc3cc(-c4ccc(C(=O)N5CCNCC5)nc4)cc(Cl)c3O2)cn1` (stereo not drawn) [Compound 342, (E)-3-(6-aminopyridin-3-yl)-N-((7-chloro-5-(6-(piperazine-1-carbonyl)pyridin-3-yl)-2,3-dihydrobenzofuran-2-yl)methyl)acrylamide]: the half-inhibitory concentration (IC50) was 100 to 5000 nM in the assay on MS751 cells (setting [1]), above 30000 nM with Z138 cells (setting [2]) and 100 to 5000 nM in the assay on 3T3 cells (setting [3]).

As for `CN1C(=O)c2ccc(-c3cc(Cl)c4c(c3)CC(CNC(=O)/C=C/c3ccc(N)nc3)O4)cc2C1=O` (stereo not drawn) [Compound 343, (E)-3-(6-aminopyridin-3-yl)-N-((7-chloro-5-(2-methyl-1,3-dioxoisoindolin-5-yl)-2,3-dihydrobenzofuran-2-yl)methyl)acrylamide], the figures for the IC50 in the assay on MS751 cells (setting [1]), with Z138 cells (setting [2]) and in the assay with 3T3 cells (setting [3]) were 100 to 5000 nM, above 30000 nM and below 100 nM, respectively.

In the case of `Nc1ccc(/C=C/C(=O)NCC2Cc3c(-c4ccccc4C(=O)N4CCOCC4)ccc(Cl)c3O2)cn1` (stereo not drawn) [Compound 344, (E)-3-(6-aminopyridin-3-yl)-N-((7-chloro-4-(2-(morpholine-4-carbonyl)phenyl)-2,3-dihydrobenzofuran-2-yl)methyl)acrylamide], the half-inhibitory concentration (IC50) was below 100 nM in the assay on MS751 cells (setting [1]), 100 to 5000 nM with Z138 cells (setting [2]) and below 100 nM in the assay with 3T3 cells (setting [3]).

As to `COc1cc(-c2ccc(C(=O)N3CCOCC3)cc2)cc2c1OC(CNC(=O)/C=C/c1ccc(N)nc1)C2` (stereo not drawn) [Compound 345, (E)-3-(6-aminopyridin-3-yl)-N-((7-methoxy-5-(4-(morpholine-4-carbonyl)phenyl)-2,3-dihydrobenzofuran-2-yl)methyl)acrylamide], the half-inhibitory concentration (IC50) in the assay on MS751 cells (setting [4]) is below 100 nM; in the assay with Z138 cells (setting [5]) it was 100 to 5000 nM; in the assay with 3T3 cells (setting [6]) it was below 100 nM.

Consider `Nc1ccc(/C=C/C(=O)NCC2Cc3cc(-c4ccc(C(=O)N5CCOCC5)cc4)cc(C(F)(F)F)c3O2)cn1` (stereo not drawn) [Compound 346, (E)-3-(6-aminopyridin-3-yl)-N-((5-(4-(morpholine-4-carbonyl)phenyl)-7-(trifluoromethyl)-2,3-dihydrobenzofuran-2-yl)methyl)acrylamide], for which the IC50 in the assay on MS751 cells (setting [1]) is below 100 nM; with Z138 cells (setting [2]), 100 to 5000 nM; with 3T3 cells (setting [3]), below 100 nM.

On to `Nc1ccc(/C=C/C(=O)NCC2Cc3cc(-c4ccc(C(=O)N5CCOCC5)cc4)cc(O)c3O2)cn1` (stereo not drawn) [Compound 347, (E)-3-(6-aminopyridin-3-yl)-N-((7-hydroxy-5-(4-(morpholine-4-carbonyl)phenyl)-2,3-dihydrobenzofuran-2-yl)methyl)acrylamide], for which the IC50 in the assay on MS751 cells (setting [1]) is 100 to 5000 nM; in the assay with Z138 cells (setting [2]), above 30000 nM; with 3T3 cells (setting [3]), 100 to 5000 nM.

Take `Nc1ccc(/C=C/C(=O)NCC2Oc3c(Cl)cc(-c4ccc(C(=O)N5CCOCC5)cc4)cc3C2=O)cn1` (stereo not drawn) [Compound 348, (E)-3-(6-aminopyridin-3-yl)-N-((7-chloro-5-(4-(morpholine-4-carbonyl)phenyl)-3-oxo-2,3-dihydrobenzofuran-2-yl)methyl)acrylamide]: the 50% inhibitory concentration (IC50) lay in the range of 100 to 5000 nM with MS751 cells (setting [4]), 5000 to 30000 nM in the assay on Z138 cells (setting [5]) and 100 to 5000 nM in the assay on 3T3 cells (setting [6]).

On to `CC1(CNC(=O)/C=C/c2ccc(N)nc2)Cc2cc(-c3ccc(C(=O)N4CCOCC4)cc3)cc(Cl)c2O1` (stereo not drawn) [Compound 349, (E)-3-(6-aminopyridin-3-yl)-N-((7-chloro-2-methyl-5-(4-(morpholine-4-carbonyl)phenyl)-2,3-dihydrobenzofuran-2-yl)methyl)acrylamide], for which the IC50 in the assay with MS751 cells (setting [1]) is 100 to 5000 nM; in the assay on Z138 cells (setting [2]), 100 to 5000 nM; in the assay with 3T3 cells (setting [3]), below 100 nM.

Values taken from US9938258B2 (Karyopharm Therapeutics Inc., priority 2012, dated 2018).
